pKi: −log10 of the molar value.

This test deals with T1, cloned human dopamine D3 receptors (Homo sapiens, UniProt P35462).
T1 construct: expressed in transfected cells; membrane homogenate
T1 sequence (P35462 whole entry): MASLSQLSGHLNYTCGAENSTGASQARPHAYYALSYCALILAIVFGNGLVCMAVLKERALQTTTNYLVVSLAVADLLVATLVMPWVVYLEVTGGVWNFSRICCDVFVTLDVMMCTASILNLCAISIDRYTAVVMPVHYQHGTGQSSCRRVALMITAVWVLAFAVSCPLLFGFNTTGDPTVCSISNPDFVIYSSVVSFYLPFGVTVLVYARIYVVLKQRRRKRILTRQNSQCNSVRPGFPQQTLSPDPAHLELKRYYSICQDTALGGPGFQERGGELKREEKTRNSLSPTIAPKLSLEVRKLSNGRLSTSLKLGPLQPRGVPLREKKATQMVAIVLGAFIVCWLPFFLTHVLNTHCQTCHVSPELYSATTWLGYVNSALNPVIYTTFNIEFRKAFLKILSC
The test is described as follows: [N-Methyl-3H]Spiroperidol binding to cloned human dopamine D3 receptors. The note with it: read-out: D3 Ki. The method in brief:
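Radioligand displacement with [N-methyl-3H]spiroperidol was run on membranes from a high-expressing CHO clone carrying human D3. Membranes were prepared in 10% DMSO and stored at −80° C.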
With `COc1c(F)ccc2c(C3CCN(C[C@H]4C[C@@H]4C(=O)N[C@H]4CC[C@H](C)CC4)CC3)noc12` [compound 831360], the pKi was 7.77. As for `COc1c(F)ccc2c(C3CCN(C[C@@H]4C[C@H]4C(=O)N[C@H]4CC[C@H](C)CC4)CC3)noc12` [compound 831361, 2R-[4-(6-Fluoro-7-methoxy-benzo[d]isoxazol-3-yl)-piperidin-1-ylmethyl]-1R-cyclopranecarboxylic acid (trans-4-methyl-cyclohexyl)-amide], the pKi was 8.76. Consider `O=C(NCCCn1cccc1)[C@@H]1C[C@H]1CN1CCC(c2noc3ccsc23)CC1` [compound 831376], for which the pKi is 7.39.

`O=C(NCCCn1cnc2ccccc21)[C@@H]1C[C@H]1CN1CCC(c2noc3ccsc23)CC1` [compound 831377]: the pKi was 8.33. The figure for `O=C(NCCCn1ccnc1-c1ccccc1)[C@@H]1C[C@H]1CN1CCC(c2noc3ccsc23)CC1` [compound 831378] is 7.45. The result for `Cc1ncc([N+](=O)[O-])n1CCNC(=O)[C@@H]1C[C@H]1CN1CCC(c2noc3ccsc23)CC1` [compound 831379] reads 7.33; that for `O=C(NCCCn1ccnc1)[C@@H]1C[C@H]1CN1CCC(c2cc3ccccc3s2)CC1` [compound 831488], 9.14. The figure for `O=C(NCCCN1CCCCC1)[C@@H]1C[C@H]1CN1CCN(c2csc3cc(C(F)(F)F)ccc23)CC1` [compound 831491] is 9.73; for `O=C(NCCCN1CCOCC1)[C@@H]1C[C@H]1CN1CCN(c2csc3cc(C(F)(F)F)ccc23)CC1` [compound 831492] it is 9.36.

Turning to `COc1ccc2c(c1)c(N1CCN(C[C@@H]3C[C@H]3C(=O)N[C@H]3CC[C@H](C)CC3)CC1)nn2C` [compound 831768], the pKi was 9.04. The figure for `COc1ccc2c(c1)c(N1CCN(C[C@@H]3C[C@H]3C(=O)NCCCn3ccnc3)CC1)nn2C` [compound 831808] is 8.42; for `COc1cccc2c(C3CCN(C[C@@H]4C[C@H]4C(=O)N[C@H]4CC[C@H](C)CC4)CC3)noc12` [compound 831809] it is 10.55. As for `COc1cccc2c(C3CCN(C[C@@H]4C[C@H]4C(=O)N4CCC(C(=O)c5ccc(F)cc5)CC4)CC3)noc12` [compound 831810], the pKi was 6.91.

Turning to `Cn1nc(N2CCN(C[C@@H]3C[C@H]3C(=O)NCCCn3ccnc3)CC2)c2sccc21` [compound 831830], the pKi was 9.12. On to `COc1cccc2c(C3CCN(C[C@@H]4C[C@H]4C(=O)NCCCn4ccnc4)CC3)noc12` [compound 831880], for which the pKi was 7.00. On to `O=C([C@@H]1C[C@H]1CN1CCN(c2csc3cc(C(F)(F)F)ccc23)CC1)N1CCN(Cc2ccc(Cl)c(Cl)c2)CC1` [compound 831881], for which the pKi was 6.96. On to `O=C(c1ccc(Cl)cc1)C1CCN(C(=O)[C@@H]2C[C@H]2CN2CCN(c3csc4cc(C(F)(F)F)ccc34)CC2)CC1` [compound 831882], for which the pKi is 7.24.

For `O=C([C@@H]1C[C@H]1CN1CCN(c2csc3cc(C(F)(F)F)ccc23)CC1)N1CCN(Cc2ccccc2)CC1` [compound 831883], the pKi was 7.32. The figure for `O=C(NCCN1CCCCC1)[C@@H]1C[C@H]1CN1CCN(c2csc3cc(C(F)(F)F)ccc23)CC1` [compound 831885] is 7.45; for `O=C(NCCN1CCCC1)[C@@H]1C[C@H]1CN1CCN(c2csc3cc(C(F)(F)F)ccc23)CC1` [compound 831886] it is 7.77; for `O=C(NCCCN1CCCC1)[C@@H]1C[C@H]1CN1CCN(c2csc3cc(C(F)(F)F)ccc23)CC1` [compound 831887] it is 8.19. Regarding `CN(C)CCCNC(=O)[C@@H]1C[C@H]1CN1CCN(c2csc3cc(C(F)(F)F)ccc23)CC1` [compound 831888], the pKi was 7.76. `Cc1cn(CCCNC(=O)[C@@H]2C[C@H]2CN2CCC(c3noc4ccsc34)CC2)cn1` [compound 831937]: the pKi was 7.46. With `Cc1cn(CCCNC(=O)[C@@H]2C[C@H]2CN2CCC(c3noc4ccsc34)CC2)c(C)n1` [compound 831938], the pKi was 7.48.

The values above are taken from patent US7772252B2, “Heterocyclic substituted carbonyl derivatives and their use as dopamine D3 receptor ligands” (Aventis Pharmaceuticals Inc., priority 2001, dated 2010).
